According to patent US11535599B2, “Benzisoxazole derivative” (Sumitomo Pharma Co., Ltd., priority 2020, dated 2022):

How the values were obtained:
mouse elevated plus maze = assay: Anxiolytic-like action, mouse elevated plus maze; assay type: in vivo; settings: Example 13 at 10 mg/kg or more oral; diazepam 3 mg/kg oral
Procedure: In Parkinson's disease, psychiatric symptom (e.g. depression, anxiety) is known as one of its non-motor symptoms. The anxiolytic-like action of the present invention was evaluated with mouse elevated plus maze. The present test is broadly used as a method for evaluating the anxiolytic-like action of agents.
In the present test, male Crl: CD1 (ICR) mice (CHARLES RIVER LABORATORIES JAPAN, INC.) were used. One hour before the test was started, the solvent, the compound of Example 13 (3 mg/kg, 10 mg/kg, 30 mg/kg, or 100 mg/kg), or diazepam (3 mg/kg) which is a positive control was orally administered to the mouse. The mouse was put into a center platform in which the illuminance was adjusted to 80-100 Lux level. The head of the mouse was set toward the closed arm, and then the test was started. The mouse was allowed to explore freely for 5 minutes. When ⅓ of the mouse's body entered the arm, the behavior was counted as arm entry. And, the time spent in the open arm was also measured with a stopwatch. The ratio of the count of the open arm entry per the count of the all arm entry, and the ratio of the time spent in the open arm per the total exploration time (5 minutes) were calculated. […] Thus, the ratio of the count of the open arm entry per the count of the all arm entry, and the ratio of the time spent in the open arm per the total exploration time tend to be small values. When these ratios in the drug administration group are higher than those of the solvent administration group, it can be judged that the drug has anxiolytic-like action.

human Cav3.1 = human Cav3.1 (Homo sapiens (Human), UniProt O43497); assay: T-type calcium channel inhibitory activity, whole-cell patch-clamp with HEK293 cell; assay type: cell-based
Procedure: (§1) The inhibitory activity of the present compounds for T-type calcium channel was measured by whole-cell patch-clamp method with HEK293 cell (vendor of HEK 293 cell: ATCC, Manassas, Va., USA, builder of expressing cell: ChanTest Corporation., Cleveland, Ohio, USA), in which human Cav3.1, human Cav3.2, or human Cav3.3 is expressed. The culture medium used for HEK293 cell was prepared by adding fetal bovine serum (10%), sodium penicillin G (100 U/mL), streptomycin sulfate (100 μg/mL), and G418 (500 μg/mL) to a mixture medium of Dulbecco's modified Eagle's medium/Ham's F-12 medium. The whole-cell current was evaluated with IonWorks Barracuda system and Population Patch Clamp (both are provided by Molecular Device Corporation, Union City, Calif., USA). The extracellular recording solution used during the recording was Hanks' balanced salt solution. The internal recording solution used herein was 50 mmol/L CsCl, 90 mmol/L CsF, 5 mmol/L MgCl2, 1 mmol/L glycol ether diamine tetraacetic acid (EGTA), and 10 mmol/L 4-(2-hydroxyethyl)piperazine-1-ethanesulfonic acid (HEPES (pH 7.2). The holding voltage was held at −90 mV, then changed to −65 mV. 60 seconds later, −20 mV pulse was added thereto for 200 millisecond to activate the channel on plasma membrane and generate calcium current. The calcium current was recorded with an amplifier of IonWorks Barracuda system, and analyzed with a program of the system (Version 2.0.2). The record of the calcium current was obtained twice, before and after the addition of the compound. In the measurement after adding the compound, the cells were exposed to the recording solution containing the compound for more than 5 minutes and then the current was measured. In the analyses, the ratio of current readout after the compound addition per current readout before the compound addition was calculated, the calculated value was subtracted from one, and the obtained value was converted to percentage. […] The value obtained from each compound was canonicalized based on the two ends of values to obtain each inhibitory rate. The positive control compound used herein was TTA-A2 which is known as T-type calcium channel inhibitor. IC50 value was calculated with Hill equation.
(§2) Each inhibitory rate (%) against T-type calcium channel at the evaluation concentration of the present compound (600 μmol/L) is shown in Table 12, in which the parenthesized values are IC50 values (μmol/L)) calculated from the dose-reactive test.

human Cav3.2 = human Cav3.2 (Homo sapiens (Human), UniProt O95180); assay: as above; assay type: cell-based
Sequence of human Cav3.2 (O95180 whole entry): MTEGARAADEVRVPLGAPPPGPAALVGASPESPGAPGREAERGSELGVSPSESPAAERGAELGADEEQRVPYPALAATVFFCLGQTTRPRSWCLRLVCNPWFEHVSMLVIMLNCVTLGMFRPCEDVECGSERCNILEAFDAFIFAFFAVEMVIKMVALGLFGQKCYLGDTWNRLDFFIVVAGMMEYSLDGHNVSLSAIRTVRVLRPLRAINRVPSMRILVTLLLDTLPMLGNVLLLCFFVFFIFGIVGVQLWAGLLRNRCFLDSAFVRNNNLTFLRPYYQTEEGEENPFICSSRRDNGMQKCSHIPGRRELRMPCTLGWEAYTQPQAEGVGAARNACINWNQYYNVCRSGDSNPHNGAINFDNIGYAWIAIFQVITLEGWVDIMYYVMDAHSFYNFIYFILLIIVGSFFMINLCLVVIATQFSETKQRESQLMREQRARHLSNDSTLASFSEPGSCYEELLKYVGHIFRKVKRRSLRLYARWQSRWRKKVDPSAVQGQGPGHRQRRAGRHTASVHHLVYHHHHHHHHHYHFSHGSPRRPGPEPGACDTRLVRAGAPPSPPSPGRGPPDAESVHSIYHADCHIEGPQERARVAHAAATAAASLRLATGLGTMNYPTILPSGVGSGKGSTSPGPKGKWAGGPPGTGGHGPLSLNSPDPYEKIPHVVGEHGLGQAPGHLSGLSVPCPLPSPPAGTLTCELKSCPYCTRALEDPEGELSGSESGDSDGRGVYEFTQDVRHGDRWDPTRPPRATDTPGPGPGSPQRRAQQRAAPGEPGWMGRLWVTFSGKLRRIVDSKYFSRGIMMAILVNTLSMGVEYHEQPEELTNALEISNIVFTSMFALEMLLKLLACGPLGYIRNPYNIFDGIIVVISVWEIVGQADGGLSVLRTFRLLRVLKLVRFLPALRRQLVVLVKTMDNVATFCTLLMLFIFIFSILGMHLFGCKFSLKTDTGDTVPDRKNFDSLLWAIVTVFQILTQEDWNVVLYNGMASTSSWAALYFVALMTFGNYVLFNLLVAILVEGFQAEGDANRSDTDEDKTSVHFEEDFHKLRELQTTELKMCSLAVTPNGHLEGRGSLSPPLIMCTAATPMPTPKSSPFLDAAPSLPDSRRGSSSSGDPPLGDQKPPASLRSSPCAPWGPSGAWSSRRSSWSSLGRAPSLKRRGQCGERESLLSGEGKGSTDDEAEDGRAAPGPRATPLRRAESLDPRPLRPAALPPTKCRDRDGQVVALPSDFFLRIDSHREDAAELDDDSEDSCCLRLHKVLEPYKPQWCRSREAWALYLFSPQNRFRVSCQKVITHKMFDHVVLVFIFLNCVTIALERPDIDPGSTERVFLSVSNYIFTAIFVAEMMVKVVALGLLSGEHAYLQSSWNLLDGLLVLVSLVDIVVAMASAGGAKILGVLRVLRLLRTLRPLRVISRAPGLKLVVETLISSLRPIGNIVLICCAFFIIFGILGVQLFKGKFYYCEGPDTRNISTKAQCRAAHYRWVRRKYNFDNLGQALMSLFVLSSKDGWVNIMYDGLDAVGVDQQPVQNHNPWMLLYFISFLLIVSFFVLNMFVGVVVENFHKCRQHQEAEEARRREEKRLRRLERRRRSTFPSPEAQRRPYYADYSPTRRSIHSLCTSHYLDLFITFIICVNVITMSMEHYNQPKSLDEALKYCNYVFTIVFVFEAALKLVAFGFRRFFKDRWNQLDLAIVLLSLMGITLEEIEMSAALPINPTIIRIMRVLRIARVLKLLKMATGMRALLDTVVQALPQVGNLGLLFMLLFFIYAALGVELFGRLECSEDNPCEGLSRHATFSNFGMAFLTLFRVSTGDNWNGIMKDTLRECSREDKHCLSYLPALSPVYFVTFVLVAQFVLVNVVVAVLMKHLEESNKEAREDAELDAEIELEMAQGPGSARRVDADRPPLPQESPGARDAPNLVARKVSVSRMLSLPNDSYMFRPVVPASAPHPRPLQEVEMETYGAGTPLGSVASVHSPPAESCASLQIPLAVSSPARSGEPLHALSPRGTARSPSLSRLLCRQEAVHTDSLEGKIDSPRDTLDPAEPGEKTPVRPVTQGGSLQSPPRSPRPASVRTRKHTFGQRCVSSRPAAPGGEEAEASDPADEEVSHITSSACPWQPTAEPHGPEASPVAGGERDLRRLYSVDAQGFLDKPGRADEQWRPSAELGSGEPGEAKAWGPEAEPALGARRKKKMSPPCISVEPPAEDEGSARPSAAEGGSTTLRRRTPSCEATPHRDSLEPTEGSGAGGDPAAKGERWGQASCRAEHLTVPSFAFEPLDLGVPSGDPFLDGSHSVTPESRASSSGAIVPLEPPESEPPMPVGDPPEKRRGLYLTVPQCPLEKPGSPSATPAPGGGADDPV
Procedure: as §1, §2

human Cav3.3 = human Cav3.3 (Homo sapiens (Human), UniProt Q9P0X4); assay: as above; assay type: cell-based
Sequence of human Cav3.3 (Q9P0X4 whole entry): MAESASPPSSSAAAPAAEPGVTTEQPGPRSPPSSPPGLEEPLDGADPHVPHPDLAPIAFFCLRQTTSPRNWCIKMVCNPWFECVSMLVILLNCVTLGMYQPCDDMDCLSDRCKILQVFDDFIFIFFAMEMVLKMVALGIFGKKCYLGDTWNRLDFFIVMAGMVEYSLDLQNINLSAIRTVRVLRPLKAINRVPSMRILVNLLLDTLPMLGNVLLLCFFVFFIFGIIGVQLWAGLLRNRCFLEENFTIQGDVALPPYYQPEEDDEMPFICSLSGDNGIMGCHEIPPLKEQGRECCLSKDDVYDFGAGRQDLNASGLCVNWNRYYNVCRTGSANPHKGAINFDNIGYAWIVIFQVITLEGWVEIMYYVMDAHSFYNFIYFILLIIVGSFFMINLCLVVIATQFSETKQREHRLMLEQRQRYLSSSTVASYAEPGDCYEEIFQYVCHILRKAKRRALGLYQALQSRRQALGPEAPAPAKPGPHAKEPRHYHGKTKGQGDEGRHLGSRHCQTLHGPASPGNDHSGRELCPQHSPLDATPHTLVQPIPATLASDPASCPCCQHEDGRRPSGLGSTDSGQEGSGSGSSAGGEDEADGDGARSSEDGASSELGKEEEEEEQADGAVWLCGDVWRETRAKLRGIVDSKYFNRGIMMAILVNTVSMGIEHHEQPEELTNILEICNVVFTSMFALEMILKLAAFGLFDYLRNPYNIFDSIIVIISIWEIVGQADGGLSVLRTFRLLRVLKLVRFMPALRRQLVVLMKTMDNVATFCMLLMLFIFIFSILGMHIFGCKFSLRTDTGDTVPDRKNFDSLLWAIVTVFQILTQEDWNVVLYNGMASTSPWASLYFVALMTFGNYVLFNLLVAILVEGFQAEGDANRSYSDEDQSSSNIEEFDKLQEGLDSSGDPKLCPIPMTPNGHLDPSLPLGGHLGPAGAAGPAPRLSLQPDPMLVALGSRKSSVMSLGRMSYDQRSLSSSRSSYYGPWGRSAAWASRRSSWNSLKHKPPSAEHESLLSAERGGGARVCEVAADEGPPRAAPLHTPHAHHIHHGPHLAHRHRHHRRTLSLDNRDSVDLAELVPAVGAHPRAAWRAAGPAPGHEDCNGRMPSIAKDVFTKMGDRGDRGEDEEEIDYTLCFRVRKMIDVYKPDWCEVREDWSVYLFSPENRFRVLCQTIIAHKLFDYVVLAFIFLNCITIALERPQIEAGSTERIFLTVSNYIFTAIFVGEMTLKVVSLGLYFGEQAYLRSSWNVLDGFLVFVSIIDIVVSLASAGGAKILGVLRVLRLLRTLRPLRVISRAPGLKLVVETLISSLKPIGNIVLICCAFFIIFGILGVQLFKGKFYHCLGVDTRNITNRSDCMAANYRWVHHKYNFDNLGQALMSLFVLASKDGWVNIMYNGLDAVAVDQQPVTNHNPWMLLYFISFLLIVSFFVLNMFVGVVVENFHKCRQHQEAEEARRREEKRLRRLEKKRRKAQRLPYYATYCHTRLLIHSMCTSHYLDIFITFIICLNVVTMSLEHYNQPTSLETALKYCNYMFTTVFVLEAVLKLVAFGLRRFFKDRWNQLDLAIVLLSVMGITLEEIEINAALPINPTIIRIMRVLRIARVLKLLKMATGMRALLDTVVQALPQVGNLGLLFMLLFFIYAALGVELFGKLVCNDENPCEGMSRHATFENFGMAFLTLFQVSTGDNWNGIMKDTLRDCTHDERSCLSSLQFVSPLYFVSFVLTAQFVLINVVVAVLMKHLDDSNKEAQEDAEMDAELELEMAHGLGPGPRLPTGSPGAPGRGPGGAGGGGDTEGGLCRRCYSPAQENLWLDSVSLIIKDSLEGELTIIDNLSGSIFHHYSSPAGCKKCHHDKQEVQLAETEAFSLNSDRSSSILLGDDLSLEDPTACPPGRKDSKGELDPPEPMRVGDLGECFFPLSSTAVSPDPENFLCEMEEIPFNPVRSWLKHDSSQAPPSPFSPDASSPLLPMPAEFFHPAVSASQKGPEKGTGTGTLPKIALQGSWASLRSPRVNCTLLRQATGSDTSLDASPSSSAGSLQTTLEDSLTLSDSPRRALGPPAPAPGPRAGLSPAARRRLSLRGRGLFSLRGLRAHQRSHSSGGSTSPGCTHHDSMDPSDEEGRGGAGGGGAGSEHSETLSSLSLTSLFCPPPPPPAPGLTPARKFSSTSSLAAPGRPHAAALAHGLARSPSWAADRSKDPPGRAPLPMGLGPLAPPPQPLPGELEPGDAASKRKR
Procedure: as §1, §2

[1] = test system: unilateral lesion model of nigrostriatal dopamine neuron induced with 6-OHDA; assay: Extending duration of levodopa-induced rotational behavior in 6-OHDA unilateral lesion model; assay type: in vivo, rat; settings: Examples 10 or 30 mg/kg oral; rasagiline 0.6 mg/kg; with levodopa 5 mg/kg i.p.
Rat striatum MAOB = Rat striatum MAOB (Rattus norvegicus (Rat), UniProt P19643); assay: Activity for inhibiting monoamine oxidase B (MAOB); assay type: biochemical; settings: [14C] β-PEA substrate; read-out: Rat striatum MAOB IC50
Sequence of Rat striatum MAOB (P19643 whole entry): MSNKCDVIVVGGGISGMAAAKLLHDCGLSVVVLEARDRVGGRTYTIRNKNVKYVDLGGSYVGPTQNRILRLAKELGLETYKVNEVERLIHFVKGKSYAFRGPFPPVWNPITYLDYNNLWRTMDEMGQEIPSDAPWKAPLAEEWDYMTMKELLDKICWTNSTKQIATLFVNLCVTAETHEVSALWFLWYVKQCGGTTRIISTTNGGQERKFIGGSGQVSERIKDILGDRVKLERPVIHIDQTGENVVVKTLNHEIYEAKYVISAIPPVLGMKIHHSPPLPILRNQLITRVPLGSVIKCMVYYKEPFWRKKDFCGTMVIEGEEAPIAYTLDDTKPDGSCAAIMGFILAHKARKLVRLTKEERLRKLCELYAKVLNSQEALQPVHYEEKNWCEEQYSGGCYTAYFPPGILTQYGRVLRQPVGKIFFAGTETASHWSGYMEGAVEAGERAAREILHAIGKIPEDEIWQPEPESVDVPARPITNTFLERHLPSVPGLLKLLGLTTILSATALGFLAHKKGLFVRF
Procedure: MAOB is an enzyme involved in oxidative de-amino acid reaction of an endogenous monoamine neurotransmitter such as dopamine. […] The effect of the present compounds for inhibiting MAOB in rat striatum and simian striatum was tested.
Mitochondria⋅synaptosome fraction containing MAOB was prepared according to the following procedure. To striata of male Slc: Wistar rat (Japan SLC, Inc.) or male cynomolgus monkey (HAMRI CO., LTD.) was added 0.32 mol/L aqueous sucrose by 10 mL per 1 gram as wet weight of the tissue, and the mixture was homogenized. The homogenate was centrifuged at 4° C. at 1,000 g for 10 minutes, and the obtained supernatant was centrifuged again at 4° C. at 17,200 g for 20 minutes. To the obtained precipitate was added a prepared buffer solution (10 mmol/L Tris-HCl buffer solution (pH 7.4), 0.25 mol/L aqueous sucrose, 0.5 mmol/L EDTA-2K) by 10 mL per 1 gram as wet weight of the original tissue, and the mixture was centrifuged again at 4° C. at 17,200 g for 20 minutes. To the obtained precipitate was added the prepared buffer solution by 40 mL per 1 gram as wet weight of the original tissue. The mixture was suspended to be used as an enzyme homogenate solution.
As a substance to be degraded by MAOB, ^14C-labeled β-phenylethylamine ([^14C] β-PEA) was used. [^14C] β-PEA and the present compound solution diluted to each concentration were incubated with the enzyme homogenate solution at 37° C. for a given period, and then the reaction was stopped by adding 3 mol/L cold HCl thereto. The reaction product was extracted with a mixture of water-saturated toluene and ethyl acetate (1:1). The supernatant organic layer was separated, a liquid scintillation cocktail (ACSII, GE Healthcare) was added to the separated organic layer, and the radioactivity was measured with a liquid scintillation counter (TRI-CARB 3100TR, Packard). The IC50 value of each compound was determined based on two parameter logistic model with the inhibitory data of each concentration, said data were obtained from plural trials.

[2] = test system: harmaline-induced essential tremor model; assay: Anti-tremor effect in harmaline-induced essential tremor model; assay type: in vivo, mouse; settings: Examples 1, 13: 25 or 50 mg/kg, Example 14: 3.125-25 mg/kg oral; β-propranolol 10 mg/kg i.p.
Procedure: As an animal model of essential tremor, an animal administrated with harmaline is broadly used in its evaluation test. […] The effect of the present compounds for harmaline-acute-administration-induced tremor was studied. To male Crl: CD1 mice (6-7 weeks old) (CHARLES RIVER LABORATORIES JAPAN, INC.), harmaline (30 mg/kg) was intraperitoneally administered to induce tremor. The present compound (Example 1 (25 mg/kg or 50 mg/kg), Example 13 (25 mg/kg or 50 mg/kg), or Example 14 (3.125 mg/kg, 6.25 mg/kg, 12.5 mg/kg, or 25 mg/kg)) was orally administered to the mouse one hour before the administration of harmaline. And, saline or β-propranolol (10 mg/kg) which is a positive control compound was intraperitoneally administered to the mouse 20 minutes before the administration of harmaline. 35 minutes before the administration of harmaline, the mouse was put into a measurement cage (an acrylic cylinder set in a horizontal direction, φ 65 mm, length 145 mm), one cage to one mouse, said measurement cage was in a soundproof box of a startle response instrument (O'hara & Co., Ltd., Tokyo). The trembling that the mouse gave were recorded over time as tremor data. The animal was put into cage, and the data were recorded for 20 minutes just before (PRE) and just after (POST) the administration of harmaline. The time-series signal data were analyzed about frequency with an analysis software, VitalTracer and BIMUTAS II-A (both, Kissei Comtech Co., Ltd., Matsumoto-shi). At 12-15 Hz or 12-18 Hz as a frequency which increases with tremor, the spectrum amounts were extracted, and the tremor intensity T of each subject was calculated according to the following formula. T=POST/PRE

human CA-II = human CA-II (Homo sapiens (Human), UniProt P00918); assay: Activity for inhibiting carbonic anhydrase (CA); assay type: biochemical; settings: 4-nitrophenyl acetate substrate
Procedure: CA is a zinc metalloenzyme family which catalyzes reversible hydration between carbon dioxide, and bicarbonate and proton.
As a substance for decomposition by CA-II, 4-nitrophenyl acetate was used herein. 4-Nitrophenyl acetate is […] with CA-II to produce 4-nitrophenol. […] To the diluted solution were added […] (final concentration: 5 mmol/L) and the present compound of each concentration, and the mixture was incubated at 37° C. under shading for 30 minutes. […] The IC50 of the compound was obtained through the two-parameter logistic model with the inhibitory rate data in each concentration which was obtained from plural trials.

[3] = test system: reserpine-induced Parkinson's disease model mouse; assay: Potentiating effect of levodopa-induced hyperactivity in reserpine-induced Parkinson's disease model mouse; assay type: in vivo; settings: Examples 12.5 or 25 mg/kg oral; rasagiline 3 or 10 mg/kg; with levodopa 200 mg/kg i.p.
Procedure: Dopamine-depleted mice due to reserpine treatment are model mice of akinesia symptoms in Parkinson's disease, said symptoms are relieved with levodopa (L-DOPA). The effect of the present compounds for potentiating the levodopa's effect was tested.
In the present test, male Crl: CD1 (ICR) mice (CHARLES RIVER LABORATORIES JAPAN, INC.) were used. 20-24 hours before starting the movement measurement, reserpine (3 mg/kg) was intraperitoneally administered to the mouse. One hour before starting the movement measurement, the present compound (12-.5 mg/kg or 25 mg/kg of. Examples 1, 2, 3, 4, and 5) was orally administered to the mouse. Shortly before starting the movement measurement, levodopa (200 mg/kg) with benserazide whose amount was ¼ of levodopa in free form was intraperitoneally administered to the mouse. The movement measurement was carried out for 90 minutes, and each total movement was compared.

[4] = test system: levodopa-induced dyskinesia in 6-OHDA unilateral lesion model; assay: Effect for inhibiting levodopa-induced dyskinesia; assay type: in vivo, rat; settings: Examples 30 or 100 mg/kg, rasagiline 0.2 or 0.6 mg/kg, daily for two weeks
Text: A unilateral lesion model of nigrostriatal dopamine neuron induced with 6-hydroxydopamine (6-OHDA) is broadly used for evaluating the drug efficacy for treating Parkinson's disease, as mentioned in Test 2. In addition, it is known that dyskinesia is developed when the present model receives repetitive administration of levodopa, which is similar to the phenomenon that patients of Parkinson's disease who have received long-term administration of levodopa develop dyskinesia. With the present model, the effect of the present compound on the dyskinesia induced by repetitive administration of levodopa was evaluated. As shown in Test 2, a unilateral lesion model of nigrostriatal dopamine neuron was prepared. One day before starting the repetitive administration of levodopa, levodopa methyl ester hydrochloride (5.86 mg/kg) containing benserazide hydrochloride ([…]) (whose ratio was 4:1 in terms of free form) was intraperitoneally administered to the model, and the rotational behavior of the model was observed from 20 minutes to 140 minutes after the administration. The models were classified considering three factors of the total rotation number (20-140 minutes after the administration), the later term of the rotation (120-140 minutes after the administration), and the rotational duration, so that the dispersion of each group could be equal. Two days after the classification, the repetitive administration of levodopa methyl ester hydrochloride (6 mg/kg) and benserazide hydrochloride (12 mg/kg) once a day for two weeks was started. […] The evaluation of dyskinesia was done after one week and two weeks of the repetitive administration. […]

Structure (SMILES): CN1C(=O)CN=C(c2ccccc2)c2cc(Cl)ccc21 [Diazepam, diazepam, reference compound]
- count of the open arm entry (mouse elevated plus maze): increase significantly
- time spent in the open arm (mouse elevated plus maze): increase significantly

Structure (SMILES): C[C@@H](c1noc2ccccc12)S(N)(=O)=O [Example 14, (1S)-1-(1,2-benzoxazol-3-yl)ethane-1-sulfonamide]
- inhibition at 600 µM (human Cav3.1; HEK293, 600 μmol/L, read-out: Cav3.1 % inhibitory rate): 49.6%
- IC50 (human Cav3.1; dose-reactive test, read-out: Cav3.1 IC50 (parenthesized)): 549 µM
- inhibition at 600 µM (human Cav3.2; HEK293, 600 μmol/L, read-out: Cav3.2 % inhibitory rate): 33.8%
- IC50 (human Cav3.2; dose-reactive test, read-out: Cav3.2 IC50 (parenthesized)): 839 µM
- inhibition at 600 µM (human Cav3.3; HEK293, 600 μmol/L, read-out: Cav3.3 % inhibitory rate): 31.8%
- IC50 (human Cav3.3; dose-reactive test, read-out: Cav3.3 IC50 (parenthesized)): 888 µM
- rotational number in the late phase (100-120 minutes) [1]: significantly increased the rotational number in the late phase
- IC50 (Rat striatum MAOB): > 600 µM
- harmaline-induced tremor intensity [2]: inhibited harmaline-induced tremor
- IC50 (human CA-II): 3.5 µM

Structure (SMILES): C#CCN[C@@H]1CCc2ccccc21 [rasagiline, reference compound]
- levodopa-induced hyperactivity (total movement, 90 minutes) [3]: a tendency to increase the movement, but the increase had no statistically-significant difference
- rotational number in the late phase (100-120 minutes) [1]: significantly increased the rotational number in the late phase
- dyskinesia induced by repetitive administration of levodopa (AIMS score) [4]: significantly got worse

Structure (SMILES): CC(C)NCC(O)COc1cccc2ccccc12 (stereo not drawn) [β-Propranolol, β-propranolol, reference compound]
- harmaline-induced tremor intensity [2]: significantly inhibited harmaline-induced tremor
